Source: ChEMBL document CHEMBL4219204, “Structure-based design and discovery of potent and selective KDM5 inhibitors” (Bioorg Med Chem Lett, 2018)
pIC50: −log10 of the molar value.

Tests used:
[1] = AUC in CD-1 mouse at 10 mg/kg, po; assay type: ADME, organism-based; settings: in vivo
[2] = target: Voltage-gated inwardly rectifying potassium channel KCNH2 (Homo sapiens, UniProt Q12809); test: Inhibition of human ERG
[3] = target: T1, Lysine-specific demethylase 4C (Homo sapiens, UniProt Q9H3R0); test: Inhibition of KDM4C (unknown origin) preincubated with enzyme
T1 sequence (Q9H3R0 whole entry): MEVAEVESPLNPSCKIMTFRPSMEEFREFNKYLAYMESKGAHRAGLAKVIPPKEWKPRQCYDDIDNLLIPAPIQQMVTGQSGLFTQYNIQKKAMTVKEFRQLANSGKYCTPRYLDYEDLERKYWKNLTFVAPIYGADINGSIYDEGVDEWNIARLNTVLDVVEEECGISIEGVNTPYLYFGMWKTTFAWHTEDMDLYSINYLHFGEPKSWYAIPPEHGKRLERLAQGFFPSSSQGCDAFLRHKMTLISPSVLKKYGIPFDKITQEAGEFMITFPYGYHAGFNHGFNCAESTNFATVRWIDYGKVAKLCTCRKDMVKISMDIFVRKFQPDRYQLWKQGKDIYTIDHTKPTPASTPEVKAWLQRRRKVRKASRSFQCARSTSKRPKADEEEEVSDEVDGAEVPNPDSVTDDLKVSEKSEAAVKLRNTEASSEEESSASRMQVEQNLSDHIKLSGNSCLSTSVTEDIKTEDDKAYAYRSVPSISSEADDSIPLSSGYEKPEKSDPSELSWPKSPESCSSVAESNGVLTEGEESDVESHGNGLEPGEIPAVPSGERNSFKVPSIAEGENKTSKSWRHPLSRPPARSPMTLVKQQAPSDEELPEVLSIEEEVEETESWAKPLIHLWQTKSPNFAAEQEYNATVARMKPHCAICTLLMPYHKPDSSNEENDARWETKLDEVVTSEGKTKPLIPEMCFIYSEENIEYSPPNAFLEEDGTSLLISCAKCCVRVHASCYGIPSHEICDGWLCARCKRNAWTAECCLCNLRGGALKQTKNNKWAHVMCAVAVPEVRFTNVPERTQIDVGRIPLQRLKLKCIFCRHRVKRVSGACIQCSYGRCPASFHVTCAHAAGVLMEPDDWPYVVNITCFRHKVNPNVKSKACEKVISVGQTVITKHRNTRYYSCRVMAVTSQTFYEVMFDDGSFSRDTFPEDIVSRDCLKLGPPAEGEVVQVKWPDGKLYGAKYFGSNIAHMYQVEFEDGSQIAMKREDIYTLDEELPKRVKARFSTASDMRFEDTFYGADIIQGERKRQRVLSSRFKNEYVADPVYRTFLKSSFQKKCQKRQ

[4] = target: Lysine-specific demethylase 5A/5B (Homo sapiens, UniProt P29375+Q9UGL1); test: Inhibition of KDM5A/KDM5B in human ZR-75-1 cells assessed as increase in H3K4me3 level after 72 hrs by fluorometric immunoassay; assay type: cell-based

Voltage-gated inwardly rectifying potassium channel KCNH2, sequence (Q12809 whole entry): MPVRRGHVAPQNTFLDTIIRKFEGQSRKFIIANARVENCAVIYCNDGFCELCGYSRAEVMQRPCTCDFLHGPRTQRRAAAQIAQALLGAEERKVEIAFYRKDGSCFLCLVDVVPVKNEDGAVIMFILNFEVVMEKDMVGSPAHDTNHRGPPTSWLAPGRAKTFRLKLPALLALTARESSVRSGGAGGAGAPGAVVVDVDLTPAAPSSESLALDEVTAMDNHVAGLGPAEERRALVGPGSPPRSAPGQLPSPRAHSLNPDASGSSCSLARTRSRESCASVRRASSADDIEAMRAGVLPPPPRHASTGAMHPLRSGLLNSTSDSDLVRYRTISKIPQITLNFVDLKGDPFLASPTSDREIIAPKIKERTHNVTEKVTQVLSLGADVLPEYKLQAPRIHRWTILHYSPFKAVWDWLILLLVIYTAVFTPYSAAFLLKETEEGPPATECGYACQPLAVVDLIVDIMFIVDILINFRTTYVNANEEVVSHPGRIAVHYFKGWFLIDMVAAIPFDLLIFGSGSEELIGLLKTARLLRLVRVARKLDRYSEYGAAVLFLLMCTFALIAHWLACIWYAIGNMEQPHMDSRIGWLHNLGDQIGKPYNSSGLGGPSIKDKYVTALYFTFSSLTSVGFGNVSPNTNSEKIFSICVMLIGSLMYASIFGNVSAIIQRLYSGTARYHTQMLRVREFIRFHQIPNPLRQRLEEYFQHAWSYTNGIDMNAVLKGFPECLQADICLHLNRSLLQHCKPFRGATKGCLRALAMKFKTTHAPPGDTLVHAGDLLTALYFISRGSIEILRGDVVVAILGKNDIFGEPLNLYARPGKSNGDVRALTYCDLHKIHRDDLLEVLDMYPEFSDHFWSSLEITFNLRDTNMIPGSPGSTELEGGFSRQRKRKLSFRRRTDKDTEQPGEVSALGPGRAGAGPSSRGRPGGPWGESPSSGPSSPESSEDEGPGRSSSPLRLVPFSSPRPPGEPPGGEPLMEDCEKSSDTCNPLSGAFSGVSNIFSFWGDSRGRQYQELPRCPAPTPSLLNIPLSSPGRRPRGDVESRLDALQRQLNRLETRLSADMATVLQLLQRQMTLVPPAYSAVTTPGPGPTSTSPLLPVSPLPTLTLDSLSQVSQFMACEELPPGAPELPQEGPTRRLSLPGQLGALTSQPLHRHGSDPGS

## Cc1cc(Cl)ccc1COc1ccnn1-c1cc(C(=O)O)ccn1
[1]
  AUC: 44000 ng·h/mL
[2]
  inhibition (INH): Not Active
[3]
  pIC50: 7.39 to 7.46
[4]
  EC50: 90 nM
